Experimental data taken from the NIST ThermoML archive (doi:10.1016/j.jct.2004.12.003).
Numbers after ± are expanded uncertainties.

Legend:
[1] = refractive index (Na D-line) (dimensionless); details: 293.15 K; 101.33 kPa; Liquid; Standard Abbe refractometry
[2] = Liquid; for mass density: 293.15 K, 101.33 kPa

| Structure (SMILES) | refractive index [1] | mass density [2] [kg/m3] | Normal boiling temperature [2] [°C] |
| --- | --- | --- | --- |
| COC(=O)c1ccccc1C(=O)OC [dimethyl 1,2-benzenedicarboxylate] | 1.514 ± 0.0011 | 1191 ± 0.8 | 283.93 ± 0.08 |
| CCC(=O)O [propanoic acid] | 1.3811 ± 0.0011 | 992.7 ± 0.5 | 141.0 ± 0.08 |
